{"source": "paper PMC9706920", "about": "“Aryloxypropanolamine targets amyloid aggregates and reverses Alzheimer-like phenotypes in Alzheimer mouse models” (Alzheimer's Research & Therapy, 2022)", "key": {"CYP 2C9": {"target": "T1, CYP 2C9 (Homo sapiens, UniProt P11712)", "T1 construct": "contained human liver microsomes (0.25 mg/ml); from tissue; host or cells: human liver microsomes", "T1 sequence (P11712 whole entry)": "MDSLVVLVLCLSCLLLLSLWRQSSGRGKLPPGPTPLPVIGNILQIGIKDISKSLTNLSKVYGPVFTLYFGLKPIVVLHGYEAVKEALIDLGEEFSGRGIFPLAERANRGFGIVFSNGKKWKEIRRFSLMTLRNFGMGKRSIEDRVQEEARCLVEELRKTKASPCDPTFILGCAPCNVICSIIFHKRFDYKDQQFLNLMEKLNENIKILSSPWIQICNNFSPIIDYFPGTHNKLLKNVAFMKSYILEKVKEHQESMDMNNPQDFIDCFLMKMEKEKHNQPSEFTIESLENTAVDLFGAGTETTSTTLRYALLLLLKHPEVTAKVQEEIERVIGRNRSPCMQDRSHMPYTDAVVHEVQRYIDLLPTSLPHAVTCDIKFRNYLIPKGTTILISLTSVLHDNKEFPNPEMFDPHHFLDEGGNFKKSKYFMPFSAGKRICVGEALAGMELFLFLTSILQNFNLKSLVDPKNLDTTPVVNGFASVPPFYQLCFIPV", "experiment": "CYP450 inhibition assay, 2C9", "assay_type": "in vitro ADME", "settings": "YIAD002 10 μM, human liver microsomes; weak or no inhibition; read-out: CYP 2C9 inhibition, IC50 (inhibition criteria)", "description": "(§1) Incubation mixtures for Cytochrome P450s (CYPs) inhibition assay contained human liver microsomes (0.25 mg/ml), 0.1 M phosphate buffer (pH 7.4), 10 μM of YIAD002, and an enzyme substrate cocktail (phenacetin 50 μM, diclofenac 10 μM, S-mephenytoin 100 μM, dextromethorphan 5 μM, and midazolam 2.5 μM). The mixture was pre-incubated at 37°C for 5 min and 1 mM NAPDH was added to initiate reactions. After 15 min of incubation, acetonitrile with terfenadine was added to stop reactions and microsomal solutions were centrifuged at 14,000 rpm at 4°C for 5 min. For LC-MS/MS analysis, supernatants were injected on a Kinetex C18 column (2.1 × 100 mm, 2.6 μm particle size, Phenomenex, USA). The composition of the mobile phase was 0.1% formic acid in water (A) and 0.1% formic acid in acetonitrile (B)."}, "CYP 2C19": {"target": "T2, CYP 2C19 (Homo sapiens, UniProt P33261)", "T2 construct": "contained human liver microsomes (0.25 mg/ml); from tissue; host or cells: human liver microsomes", "T2 sequence (P33261 whole entry)": "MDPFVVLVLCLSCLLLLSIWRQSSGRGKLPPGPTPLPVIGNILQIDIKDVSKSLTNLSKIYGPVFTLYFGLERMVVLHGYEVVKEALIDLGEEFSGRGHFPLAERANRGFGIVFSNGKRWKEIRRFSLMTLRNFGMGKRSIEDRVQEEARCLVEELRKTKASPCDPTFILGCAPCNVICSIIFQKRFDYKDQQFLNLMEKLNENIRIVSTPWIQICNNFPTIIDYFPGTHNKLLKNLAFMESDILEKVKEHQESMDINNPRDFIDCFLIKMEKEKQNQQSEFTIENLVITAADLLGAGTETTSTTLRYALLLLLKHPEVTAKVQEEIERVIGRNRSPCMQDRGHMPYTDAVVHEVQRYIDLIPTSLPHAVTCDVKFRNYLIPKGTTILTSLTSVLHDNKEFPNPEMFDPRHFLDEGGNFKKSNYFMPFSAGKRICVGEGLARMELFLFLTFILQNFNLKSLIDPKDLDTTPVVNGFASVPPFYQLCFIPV", "experiment": "CYP450 inhibition assay, 2C19", "assay_type": "in vitro ADME", "settings": "YIAD002 10 μM, human liver microsomes; weak or no inhibition; read-out: CYP 2C19 inhibition, IC50 (inhibition criteria)", "description": "as §1"}, "[1]": {"target": "T3, Aβ-Aβ interactions (Aβ(1–42) fragments) (Homo sapiens, UniProt P05067)", "T3 construct": "we added monomeric Aβ(1–42) (10 μM) labeled with fluorescent dye Flamma 552 to each well", "T3 sequence (P05067 672-713)": "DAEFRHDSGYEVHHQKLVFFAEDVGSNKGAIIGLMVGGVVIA", "experiment": "Mapping assay of Aβ(1–42) with peptide fragments", "assay_type": "biochemical", "settings": "YIAD002 500 μM, 24 h, Flamma 552-labeled Aβ(1–42) 10 μM, compared to full-length Aβ(1–42) control", "description": "Aβ fragments made up of six overlapping amino acid residues and a cysteine residue at the C-terminal were acquired by Fmoc solid phase peptide synthesis as previously described. Full length Aβ(1–42) with an additional cysteine residue at the C-terminal was used for comparison. The peptides were dissolved in DMSO ([…]) and diluted in binding buffer (0.1 M sodium phosphate, 0.15 M sodium chloride, 10 mM EDTA; pH 7.2) to prepare 50 μg/mL peptide solutions. To immobilize the Aβ fragments and monomers to maleimide-activated microplates, 100 μL of peptide solutions (50 μg/mL) was added and incubated at RT for 2 h while shaking. Cysteine solution (10 μg/mL with binding buffer) was added to cap unreacted maleimide groups. […] To define the fluorescence baseline for each well, fluorescence intensity was measured at 555 (excitation) and 580 (emission). YIAD002 (500 μM in binding buffer, 7.5% DMSO) was added to each well and incubated at RT for 24 h while shaking. Fluorescence intensity was remeasured at 555 (excitation) and 580 (emission) and baseline fluorescence was subtracted to quantify the change in fluorescence intensity caused by YIAD002. The plate was washed with 200 μL of wash buffer (0.1 M sodium phosphate, 0.15 M sodium chloride, 0.05% Tween®-20 Detergent; pH 7.2) per well three times in between steps."}, "[2]": {"experiment": "Microsomal stability, human", "assay_type": "in vitro ADME", "settings": "1 μM, 30 min, 37°C", "description": "To evaluate the rate of drug metabolism, we tested YIAD002 stability in liver microsomes of human, rat, and mouse. Microsomal concentration was 0.5 mg/ml in 0.1 M phosphate buffer (pH 7.4). 1 μM of YIAD002 was added to microsome solutions and was prewarmed at 37°C for 5 min. NADPH-regenerating solution was added to microsomes and incubated at 37°C for 30 min. At the end of incubation, acetonitrile with chlorpropamide was added to stop reactions and microsomal solutions were centrifuged at 14,000 rpm at 4°C for 5 min. For LC-MS/MS analysis, supernatants were injected on a Kinetex C18 column (2.1 × 100 mm, 2.6 μm particle size, Phenomenex, USA). The composition of the mobile phase was 0.1% formic acid in water (A) and 0.1% formic acid in acetonitrile (B)."}, "CYP 2D6": {"target": "T4, CYP 2D6 (Homo sapiens, UniProt P10635)", "T4 construct": "contained human liver microsomes (0.25 mg/ml); from tissue; host or cells: human liver microsomes", "T4 sequence (P10635 whole entry)": "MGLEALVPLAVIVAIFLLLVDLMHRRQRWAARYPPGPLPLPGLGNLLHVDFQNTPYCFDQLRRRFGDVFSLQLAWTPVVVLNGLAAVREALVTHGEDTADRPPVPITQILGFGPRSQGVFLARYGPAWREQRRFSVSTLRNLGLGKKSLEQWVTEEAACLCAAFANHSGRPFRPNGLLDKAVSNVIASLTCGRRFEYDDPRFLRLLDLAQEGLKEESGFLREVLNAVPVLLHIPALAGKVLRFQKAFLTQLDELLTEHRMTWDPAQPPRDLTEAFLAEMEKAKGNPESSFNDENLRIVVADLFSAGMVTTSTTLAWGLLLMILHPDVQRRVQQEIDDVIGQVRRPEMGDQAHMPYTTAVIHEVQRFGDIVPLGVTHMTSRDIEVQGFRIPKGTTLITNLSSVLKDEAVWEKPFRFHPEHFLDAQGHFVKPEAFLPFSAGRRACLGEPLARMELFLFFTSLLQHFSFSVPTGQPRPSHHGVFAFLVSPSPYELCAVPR", "experiment": "CYP450 inhibition assay, 2D6", "assay_type": "in vitro ADME", "settings": "YIAD002 10 μM, human liver microsomes; weak or no inhibition; read-out: CYP 2D6 inhibition, IC50 (inhibition criteria)", "description": "as §1"}, "Aβ(pE3-42) aggregates": {"target": "T5, Aβ(pE3-42) aggregates (Homo sapiens, UniProt P05067)", "T5 construct": "Aβ(pE3-42), p[…]; made in house; host or cells: chemical synthesis (Fmoc solid phase peptide synthesis)", "T5 sequence (P05067 674-713)": "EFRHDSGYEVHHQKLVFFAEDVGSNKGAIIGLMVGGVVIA", "experiment": "ThT fluorescence Aβ(pE3-42) disaggregation assay", "assay_type": "biochemical", "settings": "Fig. 4D", "description": "ThT fluorescence was used to assess the in vitro inhibition of Aβ(1–42) and disaggregation of Aβ(1–42), Aβ(1–40), Aβ(pE3-42), recombinant tau K18, and tau repeats R1, R2, R3, R4 by YIAD compounds. In house synthetic Aβ(1–42) was dissolved in DMSO (1 mM, 100% DMSO) and diluted to 20-fold in deionized water to make 50 μM Aβ(1–42) stocks (5% DMSO). YIAD compounds were first dissolved in DMSO (100 mM, 100% DMSO) and serially diluted with deionized water to make YIAD stocks with concentrations of 1, 10, 100, and 1000 μM (10% DMSO). For the Aβ(1–42) inhibition assay, monomeric Aβ(1–42) stocks and YIAD stocks were co-incubated at 37°C for 3 days. For Aβ(1–42) disaggregation assay, monomeric Aβ(1–42) stocks were preincubated at 37°C for three days to form Aβ(1–42) aggregates, and subsequently, YIAD stocks were added for an additional 3 days. For Aβ(1-40) disaggregation assays, Aβ(1–40) (50 μM, 5% DMSO) was preincubated at 37°C for 3 days to induce aggregation, and co-incubated with YIAD001 and YIAD002 for an additional 3 days. […] Prior to fluorescence intensity measurement, ThT solution (5 μM) was prepared by dissolving ThT, purchased from Sigma-Aldrich (MO, USA) in 50 mM glycine buffer (pH 8.5). To quantify the effect of inhibition and disaggregation, 25 μL of all samples and 75 μL of ThT solution were loaded into a half-area 96-well black plate in triplicate."}}, "data": [{"smiles": "CCC(C)(C)c1ccc(OCC(O)CN2CCCC2)c(C(C)(C)CC)c1.Cl", "note": "(stereo not drawn) [YIAD002, 1-(3-(2,4-Di-tert-pentylphenoxy)-2-hydroxypropyl)pyrrolidin-1-ium chloride]", "values": [{"measurement": "IC50", "setting": "CYP 2C9", "value": "> 10", "unit": "µM"}, {"measurement": "IC50", "setting": "CYP 2C19", "value": "> 10", "unit": "µM"}, {"measurement": "Dissociation of Aβ-Aβ interactions at immobilised Aβ fragments", "setting": "[1]", "value": "markedly dissociated Aβ-Aβ interactions at residues Aβ(16–21), KLVFFA, and Aβ(32–37), IGLMVG"}, {"measurement": "Remaining compound in human microsomes", "setting": "[2]", "value": 55.5, "unit": "%"}, {"measurement": "IC50", "setting": "CYP 2D6", "value": "> 10", "unit": "µM"}, {"measurement": "Dissociative activity against Aβ(pE3-42) aggregates", "setting": "Aβ(pE3-42) aggregates", "value": "dissociative activity"}]}]}
